Reference: PMC4694766, “Modeling-Enabled Characterization of Novel NLRX1 Ligands” (PLoS ONE, 2015)
Entries after “also recorded” stand apart in the source; their conditions may differ. Read-outs that look alike come from different tables or passages of the source. Values belong to the molecule of their own block, whether it stands above or below them.

Assays:
[1] = target: T1, cNLRX1 (wild type) (Homo sapiens, UniProt Q86UT6); experiment: SPR (Biacore T200) direct binding to immobilized cNLRX1 wild type; conditions: for kon: NLRX1: WT, read-out: ka
T1 construct: cNLRX1 (AA 667–970) was cloned into pPinkHC-Alpha-SDK; polyhistidine (6x); made in house; host or cells: Pichia pastoris (Strain 4: ade2, prb1, pep4)
Protocol: White colonies on drop adenine media were screened for protein expression via small-scale induction and both pellets and supernatants were screened for expression via western blot using an anti-polyhistidine (6x) antibody (Immunology Consultants Laboratory, Inc). […] Every 24 hours post induction cells were fed 10 mL of methanol and 10% filter sterilized sorbitol for 4 days post induction. Cells were subsequently harvested at 10,000 x g for 15 min and were either used immediately or stored at -80°C.
Cells were re-suspended in 40 mL of ice-cold lysis buffer (50mM Sodium Phosphate, 200mM sodium chloride, 25mM Sucrose, 0.1% T-100, pH = 7.2) and sonicated 8 times at max amplitude using a 15 sec ON 45 sec OFF cycle. Lysed cells were centrifuged at 15,000 x g for 30 min at 4°C. Supernatant were loaded onto a 150 mL Super-loop and purified using a programmed immobilized metal affinity chromatography gradient protocol on the AKTA prime plus. Bound protein was washed with 40 column volumes of wash buffer (50 mM sodium phosphate buffer, 300 mM sodium chloride, 20 mM imidazole, pH 8.0) and eluted in 1 mL fractions over a 0.02-1M imidazole 40 mL gradient. Purity was assessed via SDS-PAGE. Proteins were further purified via gel filtration chromoatograhy using a Superdex75 column (16/600) in 50 mM sodium phosphate, 300 mM sodium chloride pH 8.0. […] Protein was dialyzed (1:1000) twice at 4°C for a minimum of 8 hours in appropriate buffers for downstream assays.
(§1) Direct binding experiments were performed via the Biacore T200 Surface Plasmon Resonance (SPR) Technology (Georgetown University). […] The cNLRX1 was immobilized to a CM4 or CM5 chip by amine coupling method. Two adjacent surfaces were activated by injection of a 1:1 (v:v) mixture of 0.1 M N-Hydroxysuccinimide (NHS) and 0.4 M 1-Ethyl-3-(3-dimethyl-aminopropyl)-carbodiimide hydrochloride (EDC) for 720 seconds. Experimental flow cell was then injected with the cNLRX1 that was diluted in 10 mM pH 4.0 sodium acetate buffer to a final concentration of 25 μg/mL. Both experimental and the reference flow cells were inactivated by injection of 1M Ethanolamine-HCl pH 8.0 for 720 seconds.
(§2) Negative control compound, 1,14-bis (3,b-dimethoxypheny1)-tetradecane, was tested at a concentration of 20 μM. Injection time was 60 seconds and dissociation time was 300 seconds. […] Data was analyzed by using the BiaEvaluation software (GE Healthcare) with 1:1 binding model for steady state affinity. Raw data was exported and graphed using Prizm for Mac v5.0d and excel.

[2] = tested on: NF-κB p65 activity in BMDMs from wild type and Nlrx1-/- mice; experiment: NF-κB p65 ELISA (TransAM) on LPS-stimulated bone marrow derived macrophages; assay type: cell-based, mouse; conditions: LPS 1μg/ml 12 hours, then 40 μM compound 12 hours
Protocol: Bone marrow derived macrophages (BMDM)s were isolated from hind legs of wild type and Nlrx1-/- mice in sterile conditions and cultured for 7 days as described. […] Nuclear extraction was performed on colon homogenates using the Active Motif Nuclear Extraction Kit (Carlsbad, CA) as previously described. ELISA was performed on nuclear fractions using the Active Motif TransAM® NF-κB p65 kit according to the manufacturer’s instructions.
The NF-κB activation by NLRX1 ligands was detected and quantified by using the Trans-AM™ NF-κB p65 ELISA-based assay (Active Motif, Carlsbad, CA) as described in the manual of the Active Motif TransAM® NF-κB p65 kit.
Fig 4 Effect of NLRX1 disruption on NF-κB activation in Bone marrow derived macrophage (BMDM). […] Nuclear extraction was performed on colon homogenates using the Active Motif Nuclear Extraction Kit (Carlsbad, CA). ELISA was performed on both cytoplasmic and nuclear fractions using the Active Motif TransAM® NF-κB p65 kit according to the manufacturer’s instructions. Letter superscripts indicate significant (P-value < 0.05) differences by ANOVA.

[3] = target: T2, cNLRX1 ASP677, PHE680, PHE681, and GLU684 to alanine mutant (Mutant) (Homo sapiens, UniProt Q86UT6, D677A/E684A/F680A/F681A); experiment: SPR (Biacore T200) direct binding to immobilized Mutant cNLRX1
T2 construct: cNLRX1 (AA 667–970) was cloned into pPinkHC-Alpha-SDK; polyhistidine (6x); made in house
Protocol: as §1, §2

[4] = tested on: DSS-induced colitis; conditions: for disease activity: 8% DSS six days, PUA 40 mg/kg oral gavage daily vs PBS
Protocol: C57BL/6J wild-type (WT) and Nlrx1-/- mice (n = 10) ranging from 8–10 weeks of age were administered 8% DSS (average […] molecular weight) in drinking water for six days. Control mice received tap water. […] On day 6, mice were euthanized via carbon dioxide narcosis with secondary cervical dislocation. All mice were weighed and scored daily. Clinical scores were based on physical appearance (0–3), fecal consistency (0–3), presence of rectal bleeding (0–4), and weight loss (0–3) and assigned a compounded score for overall disease activity (0–4).
Total RNA was isolated from whole mouse colon using a Qiagen (Germantown, MD) RNA isolation mini kit. Complementary DNA (cDNA) was generated from each sample (1 μg RNA) using the iScript cDNA synthesis kit (Bio-Rad). Standards were produced through a polymerase chain reaction on the cDNA with Taq DNA polymerase from Invitrogen. The amplicon was purified using the Mini-Elute PCR purification kit from Qiagen. Expression levels were obtained through quantitative real-time PCR on a Bio-Rad (Hercules, CA) CFX 96 Thermal Cycler using the Bio-Rad SYBR Green Supermix. For analysis, the starting amount of anti-microbial peptide cDNA was compared to that of beta-actin, as a control. cDNA concentrations for genes of interest were examined by RT-PCR as described.
Colonic samples were fixed in 10% buffered formalin, embedded in paraffin, processed routinely and sectioned at 5 μm. Sections were stained with hematoxylin and eosin (H&E) and then examined and graded using an Olympus microscope (Olympus America, Center Valley, PA) and ImagePro software. Sections were graded for leukocytic infiltration (0–4), epithelial erosion (0–4) and mucosal thickening (0–4).

[5] = tested on: PPARγ; conditions: cited from earlier work
[6] = tested on: DSS-induced colitis and spontaneous pan-enteritis in IL-10−/− mice; conditions: cited from earlier work
[7] = target: the molecule itself; experiment: SEC; Superdex 75 column (16/600) at 1 ml/min in 50 mM sodium phosphate, 300 mM sodium chloride, pH 8; blue dextran run alongside
[8] = Nlrx1-/- mice, day six of DSS, PUA 40 mg/kg oral gavage
[9] = WT mice, day six of DSS, PUA 40 mg/kg oral gavage

T2 sequence (Q86UT6 667-970 D677A/F680A/F681A/E684A limits assumed): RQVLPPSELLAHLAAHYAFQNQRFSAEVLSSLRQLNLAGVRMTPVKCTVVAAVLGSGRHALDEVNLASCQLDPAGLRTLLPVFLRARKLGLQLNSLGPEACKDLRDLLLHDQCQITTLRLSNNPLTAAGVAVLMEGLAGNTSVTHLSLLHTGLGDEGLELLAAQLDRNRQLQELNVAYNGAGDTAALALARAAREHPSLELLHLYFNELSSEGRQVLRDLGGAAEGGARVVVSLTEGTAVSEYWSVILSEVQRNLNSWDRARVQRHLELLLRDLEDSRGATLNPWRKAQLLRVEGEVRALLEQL

- Kd [1]: 14.6 µM
- kon ([1]; SPR): 2320 M⁻¹ s⁻¹
- equilibrium constant of dissociation (KD) [3]: 338 µM
Molecule: CCCC\C=C/C=C/C=C\CCCCCCCC(=O)O [PUA, punicic acid]
- NF-κB activity ([2]; Nlrx1-/- BMDMs): abrogates the effect
- NF-κB activity ([2]; wild type BMDMs): suppressed the NF-κB activity
- disease activity ([4]; Nlrx1-/- mice): no observable inhibition of colitis
- TNFα mRNA expression in whole colon [4, 8]: overall unaffected
- colon histopathology (inflammatory amelioration) [4, 8]: failed to show any inflammatory amelioration
- disease activity ([4]; WT mice): significant symptom regulation
- TNFα mRNA expression in whole colon [4, 9]: significantly lower
- colon histopathology scores (epithelial erosion, leukocytic infiltration, mucosal thickening) [4, 9]: significantly lower scores
- binding and activation of PPARγ [5]: robustly bind and activate PPARγ
- effect on colitis ([6]; DSS-induced colitis and spontaneous pan-enteritis in IL-10−/− mice): ameliorate DSS-induced colitis and spontaneous pan-enteritis

- Kd [1]: 13.3 µM
- kon ([1]; SPR): 3420 M⁻¹ s⁻¹
- equilibrium constant of dissociation (KD) [3]: 170 µM
Molecule: CCCCC=CC=CC=CCCCCCCCC(=O)O [ESA, eleostearic acid]
- effect on gut inflammation [6]: able to regulate gut inflammation

More lines, now with the values behind:

Molecule: COc1cc(CCCCCCCCCCCCCCc2cc(OC)cc(OC)c2)cc(OC)c1 [1,14-bis (3,b-dimethoxypheny1)-tetradecane, reference compound]
- binding to cNLRX1 by SPR (in words) ([1]; ssRNA 0.5-8 μM, negative control injected at 20 μM): failed to bind cNLRX1; also recorded: No binding was observed

Molecule: CC/C=C\C/C=C\C/C=C\C/C=C\C/C=C\C/C=C\CCC(=O)O [DHA, docosahexaenoic acid]
- Kd ([1]; SPR, cNLRX1 WT, read-out: equilibrium constant of dissociation (KD)): 2.3 µM
- NF-κB activity ([2]; Nlrx1-/- BMDMs): abrogates the effect
- NF-κB activity ([2]; wild type BMDMs): suppressed the NF-κB activity

B1: C-terminal fragment of the human NLRX1 (cNLRX1), AA 667-970 (domain or fragment, UniProt Q86UT6 667-970, looked up)
chain: RQVLPPSELLDHLFFHYEFQNQRFSAEVLSSLRQLNLAGVRMTPVKCTVVAAVLGSGRHALDEVNLASCQLDPAGLRTLLPVFLRARKLGLQLNSLGPEACKDLRDLLLHDQCQITTLRLSNNPLTAAGVAVLMEGLAGNTSVTHLSLLHTGLGDEGLELLAAQLDRNRQLQELNVAYNGAGDTAALALARAAREHPSLELLHLYFNELSSEGRQVLRDLGGAAEGGARVVVSLTEGTAVSEYWSVILSEVQRNLNSWDRARVQRHLELLLRDLEDSRGATLNPWRKAQLLRVEGEVRALLEQL
notes: NLRX1, human, C-terminal fragment, AA 667-970; Cloned into pPinkHC-Alpha-SDK; The vector may add a secretion signal, but the protein was purified from lysed cells; also called cNLRX1 wildtype; cNLRX1 (WT)
- binding result [7]: binds
